In US12275685B2, “Oligo-benzamide analogs and their use in cancer treatment” (Board of Regents, The University of Texas System, priority 2018, dated 2025):

Columns and labels:
[1] = tested on: MCF-7 MT-ERα Y537S and D538G cells; format: cell-based; conditions: comparators at 200 nM in MCF-7 MT-ERα Y537S cells
MCF-7 MT-ERα Y537S cells = format: cell-based; conditions: 200 nM
ZR-75 MT-ERα cells = test: Colony formation, ZR-75 MT-ERα; format: cell-based
Protocol: The 200 nM dose for these drugs reflects the level at which each of these drugs has a significant effect on spheroid formation in the MCF-7 WT-ERa cells. Taken together, these studies indicate that TX-542 has significant activity against both WT-ERα and MT-ERα driven ERα+ BC cell lines and is a worthwhile candidate for further study.

[2] = tested on: BC cells expressing MT-ERα (MCF-7, ZR-75, T47-D); test: Cell titer glo antiproliferative assay in MT-ERα BC cells; format: cell-based; conditions: T47-D Y537S MT
From the text: FIG. 52: Comparative efficacy of TX-542 and SERDs in BC cells expressing WT and/or MT ERα: Using CRISPR-Cas9, both copies of WT ERα genes were knocked out in ZR-75 and T47-D, while only one copy of WT Era was knocked out in MCF-7 cells. Following knockout of WT ERα clones with stable expression of either Y537S ERα MT or the D538G ERα MT were selected. […] ERα-negative TNBC cells (SUM-159 and MDA-MB-231) were used as controls. Dose response curves were generated for ERX-11, TX-542 and SERDs using cell titer glo assays. IC50 values for each cell line and drug were calculated and tabulated. Tam=tamoxifen, ICI=fulvestrant, GDC-0810=Genentech SERD, AZD-9496 Astra Zeneca SERD, RAD-1901=Radius SERD, Palbo=Palbociclib. IC50 values<50 nM are shown in red.
TX-542. TX-542 was potent (IC50˜20-50 nM) as an antiproliferative agent against expressing MT-ERα, both in genetically modified MCF-7 cells with one WT-ERα allele and one MT-ERα allele introduced by CRISPR and genetically modified ZR-75 or T47-D cells in which both copies of WT-ERα alleles were replaced using CRISPR with MT-ERα. TX-542 had no activity against ER-null (SUM-159 or MDA-MB-231 cells) or non-tumorigenic breast epithelial cells, such as human mammary epithelial cells (HMEC). […] In addition, these agents are not able to consistently target all the MT-ERα forms in distinct genetic contexts, as shown in FIG. 52 and as reported by others.

OCa cells = test: MTT assay in OCa cells; format: cell-based
Protocol: FIGS. 12A-12D show the effect of TK208 against ovarian cancer cell lines ES2 (FIGS. 12A & 12B) and SKOV3 (FIGS. 12C & 12D).
FIGS. 42A-D: OCa cells were treated with ERX-11 (FIG. 42A) or ERX-208 (FIG. 42B). Primary OCa cells derived from ascites were treated with ERX-208 for 72 h (FIG. 42C) and cell viability by MTT assays. (FIG. 42D) Effect of ERX-208 on viability of IOSE cells was measured using MTT assays and TOV21G was used as +ve control.
ERX-208. […] Functionally, ERX-208 causes growth inhibition of OCa cells, as noted by MTT assays using five established OCa cells (ES2, SKOV3, A2780, TOV21G, TOV112D) and five primary OCa cells derived from HGSOC patient ascites (AS21, AS23, AS25, AS28, AS29) (FIGS. 42B-C). […] The inventor noted an IC50 of ˜50-100 nM for ERX-208 both for inducing ERS and in reducing the growth of OCa cells.

MT-ERα [3] = test: MT-ERα protein levels; format: cell-based
ovarian cancer cells = test: Growth inhibition of ovarian cancer cells; format: cell-based
From the text: FIGS. 10A & 10B show effects of TK208 against cancer cells.
(§1) In addition, another tris-benzmaide compound TK208 was synthesized and tested against breast cancer and ovarian cancer cell lines (FIGS. 10-15). […] These compounds (e.g., TK41, TK208, TK308 (FIG. 21), TK309 (FIG. 22), TK314, TK315) are extremely potent compounds that inhibit tumor growth and kill breast and ovarian cancer cells and as such, they are superb therapeutic candidates for such diseases.

[4] = tested on: WT- and MT-ERα-driven cell lines (MCF-7, ZR-75); test: Anti-proliferative activity in WT- and MT-ERα-driven cell lines; format: cell-based
breast cancer cells = test: Growth inhibition of breast cancer cells; format: cell-based; conditions: relative to ovarian cancer cells
From the text: as §1

MT-ERα [5] = test: RNA sequencing of MT-ERα transcriptional programme; format: cell-based; conditions: MCF-7 and ZR-75 cells expressing D538G and Y537S MT-ERα
From the text: FIGS. 66A-D: (FIG. 66A) Effect of ERX-315 on ERa DNA binding on the promoters of 5 canonical ERα-regulated genes with ERa ChIP in MCF-7 expressing D538G MT-ERα in the absence and presence of estradiol.
Prior studies have shown that MT-ERα drives a canonical ERα transcriptional programme, both in the absence and presence of estradiol. RNA sequencing studies indicate that ERX-315 alters the transcriptional heatmap in MCF-7 and ZR-75 cells expressing D538G and Y537S MT-ERα (FIG. 66B, data shown for MCF-7 cells expressing D538G MT-ERα).

vitamin D receptor (VDR) = molecular target: T1, vitamin D receptor (VDR) (Homo sapiens, UniProt P11473); test: Vitamin D receptor inhibition; format: cell-based
T1 construct: endogenous in cells; host or cells: cancer cells
T1 sequence (P11473 whole entry): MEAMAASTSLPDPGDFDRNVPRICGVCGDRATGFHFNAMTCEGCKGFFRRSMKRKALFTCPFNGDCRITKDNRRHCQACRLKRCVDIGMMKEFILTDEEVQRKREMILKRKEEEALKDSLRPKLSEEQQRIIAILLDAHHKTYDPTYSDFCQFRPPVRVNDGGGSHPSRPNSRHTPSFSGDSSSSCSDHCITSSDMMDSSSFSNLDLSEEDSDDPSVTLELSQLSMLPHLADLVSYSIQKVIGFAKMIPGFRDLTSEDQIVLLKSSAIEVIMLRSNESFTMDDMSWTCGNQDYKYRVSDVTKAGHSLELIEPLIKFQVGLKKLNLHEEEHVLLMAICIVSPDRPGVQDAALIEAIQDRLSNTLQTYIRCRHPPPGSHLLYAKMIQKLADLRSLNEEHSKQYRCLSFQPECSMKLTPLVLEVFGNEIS

ERα = ERα (Homo sapiens, UniProt P03372); format: cell-based; conditions: WT-ERα
Chain of ERα (P03372 whole entry): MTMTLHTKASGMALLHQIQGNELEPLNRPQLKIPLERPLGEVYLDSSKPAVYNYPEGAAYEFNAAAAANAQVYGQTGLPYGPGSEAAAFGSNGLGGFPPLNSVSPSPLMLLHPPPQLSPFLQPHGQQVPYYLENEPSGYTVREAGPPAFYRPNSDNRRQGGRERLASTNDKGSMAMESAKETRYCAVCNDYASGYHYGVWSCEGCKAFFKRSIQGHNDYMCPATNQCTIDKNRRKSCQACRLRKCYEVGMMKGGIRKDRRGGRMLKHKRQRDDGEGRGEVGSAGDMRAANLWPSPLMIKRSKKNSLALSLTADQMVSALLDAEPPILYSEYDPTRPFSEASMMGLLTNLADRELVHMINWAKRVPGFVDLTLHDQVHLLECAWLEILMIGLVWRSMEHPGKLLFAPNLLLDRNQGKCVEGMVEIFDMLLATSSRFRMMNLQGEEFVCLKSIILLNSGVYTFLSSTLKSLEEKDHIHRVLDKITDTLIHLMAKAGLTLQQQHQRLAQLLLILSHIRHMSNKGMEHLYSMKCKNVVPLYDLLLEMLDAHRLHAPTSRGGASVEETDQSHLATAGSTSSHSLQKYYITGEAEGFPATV

lipase activity of LIPA = molecular target: T2, lipase activity of LIPA (Homo sapiens, UniProt P38571); test: Lipase activity assay; format: biochemical; conditions: SUM-159 cells
T2 construct: lipase activity of parental SUM-159 (WT) and SUM-159 cells with LIPA KO; endogenous in cells; host or cells: SUM-159 (parental)
T2 sequence (P38571 77-399): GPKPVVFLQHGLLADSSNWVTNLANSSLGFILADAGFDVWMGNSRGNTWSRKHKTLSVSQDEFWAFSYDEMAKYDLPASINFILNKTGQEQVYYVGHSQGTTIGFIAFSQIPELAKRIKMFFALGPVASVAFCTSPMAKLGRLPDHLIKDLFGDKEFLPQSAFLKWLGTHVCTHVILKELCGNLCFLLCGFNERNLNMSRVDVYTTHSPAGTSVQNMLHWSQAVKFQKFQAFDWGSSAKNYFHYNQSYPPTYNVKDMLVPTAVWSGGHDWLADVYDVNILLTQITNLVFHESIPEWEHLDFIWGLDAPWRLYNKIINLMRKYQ
From the text: FIGS. 39A-N: (FIGS. 39A-E) Predicted binding mode of ERX-41 (colored in green) on the human lysosomal acid lipase (LAL, PDB code: 6V7N, LXXLL (SEQ ID NO: 1) domain colored in orange). (FIG. 39F) PDB structure of LAL protein showing relative positions of the catalytic domain (with H274Y MT) and the LXXLL (SEQ ID NO: 1) domain (L242P MT). (FIG. 39G) Evaluation of the effect of ERX-41 and lalistat (known lipase inhibitor) on lipase activity of parental SUM-159 (WT) and SUM-159 cells with LIPA KO. (FIG. 39H) Evaluation of basal lipase activity in parental SUM-159 (WT), SUM-159 cells with LIPA KO (KO), SUM-159 cells with LIPA KO and with reconstitution of either WT LIPA (KO+WT), H274Y MT-LIPA (KO+H274Y), DLXXLL (SEQ ID NO: 2) MT-LIPA (KO+DLXXLL (SEQ ID NO: 2)) or L242P MT-LIPA (KO+L242P). Protein expression of LAL and control vinculin in these cells are shown below (FIG. 391) Cellular lysates from described SUM-159 cells were incubated with biotinylated ERX-11 or biotinylated ERX-41 and then subject to a streptavidin column. Elutants were then evaluated for LIPA pulldown by western blotting. (FIG. 39J) Dose response curve to increasing concentrations of ERX-41 in described SUM-159 cells. (FIGS. 39K-M) Effect of vehicle or 1 μM ERX-41 on induction of UPR genes at the protein level (FIG. 39K) or RNA level (FIGS. 39L-M). […]

C[C@@H]1Cc2c([nH]c3ccccc23)[C@@H](c2c(F)cc(/C=C/C(=O)O)cc2F)N1CC(C)(C)F [AZD-9496] was tested, and the “spheroid size or architecture” value [1] was “neither ERX-11, palbociclib, GDC-0810 nor AZD-9496, tamoxifen nor fulvestrant (at 200 nM) significantly disrupted spheroid size or architecture”, the “soft agar colony formation” value (MCF-7 MT-ERα Y537S cells) was “significantly affected colony formation” and the “colony formation in ZR-75 MT-ERα cells” value (ZR-75 MT-ERα cells) was “activity was not seen”. For the same compound, the “activity against T47-D Y537S MT” value [2] was “potent activity”.
For CC(C)COc1cc(C(N)=O)ccc1NC(=O)c1ccc(NC(=O)c2ccc([N+](=O)[O-])c(OCCO)c2)c(OCC(C)C)c1 [ERX-11, reference compound], the “activity against OCa cells / cell viability” value (OCa cells) was “limited activity”, the “spheroid size or architecture” value [1] was “neither ERX-11, palbociclib, GDC-0810 nor AZD-9496, tamoxifen nor fulvestrant (at 200 nM) significantly disrupted spheroid size or architecture” and the “soft agar colony formation” value (MCF-7 MT-ERα Y537S cells) was “neither the parental ERX-11, tamoxifen nor GDC0810 SERD (at the same concentrations) had an effect on colony formation”.
In the case of CC/C(=C(/c1ccc(/C=C/C(=O)O)cc1)c1ccc2[nH]ncc2c1)c1ccc(F)cc1Cl [GDC-0810], the “spheroid size or architecture” value [1] is reported as “neither ERX-11, palbociclib, GDC-0810 nor AZD-9496, tamoxifen nor fulvestrant (at 200 nM) significantly disrupted spheroid size or architecture”, the “soft agar colony formation” value (MCF-7 MT-ERα Y537S cells) is reported as “neither the parental ERX-11, tamoxifen nor GDC0810 SERD (at the same concentrations) had an effect on colony formation” and the “ability to decrease MT-ERα protein levels” value (MT-ERα [3]) is reported as “neither fulvestrant nor GDC-0810 were able to decrease MT-ERα protein levels”.
For CC(C)COc1cc(C(=O)Nc2ccc(C(=O)N[C@H]3CC[C@H](C)CC3)cc2OCC(C)C)ccc1NC(=O)c1ccc(F)c(OCCO)c1 [TK314], the IC50 (ovarian cancer cells) was 10 to 50 nM, the “activity against ovarian cancer cells” value (ovarian cancer cells) was “unique activity against ovarian cancer cells” and the IC50 [4] was 1500 to 5000 nM. The “activity against breast cancer cells” value (breast cancer cells) was “significantly less activity against breast cancer cells” and the MT-ERα transcriptional programme (MT-ERα [5]) was “neither tamoxifen nor ERX-314 is able to alter the ERα-regulated transcriptome”.
With CC(C)COc1cc(C(=O)Nc2ncc[nH]2)ccc1NC(=O)c1ccc(NC(=O)c2ccc([N+](=O)[O-])c(OCCO)c2)c(OCC(C)C)c1 [YL144] the “inhibition of VDR” value (vitamin D receptor (VDR)) was “high potency”.
C[C@]12CC[C@@H]3c4ccc(O)cc4C[C@@H](CCCCCCCCC[S+]([O-])CCCC(F)(F)C(F)(F)F)[C@H]3[C@@H]1CC[C@@H]2O (stereo partly shown) [fulvestrant] was tested, and the “time to WT-ERα degradation” value (ERα) was at most 4 h, the “spheroid size or architecture” value [1] was “neither ERX-11, palbociclib, GDC-0810 nor AZD-9496, tamoxifen nor fulvestrant (at 200 nM) significantly disrupted spheroid size or architecture” and the “soft agar colony formation” value (MCF-7 MT-ERα Y537S cells) was “significantly affected colony formation”. For the same compound, the “ability to decrease MT-ERα protein levels” value (MT-ERα [3]) was “neither fulvestrant nor GDC-0810 were able to decrease MT-ERα protein levels” and the “colony formation in ZR-75 MT-ERα cells” value (ZR-75 MT-ERα cells) was “activity was not seen”.
With O=C(Oc1nsnc1N1CCCCC1)N1CCCCC1 [lalistat, reference compound] the “effect on lipase activity of LIPA” value (lipase activity of LIPA) was “attenuated lipase activity”.
CC/C(=C(\c1ccccc1)c1ccc(OCCN(C)C)cc1)c1ccccc1 [tamoxifen] was tested, and the “spheroid size or architecture” value [1] was “neither ERX-11, palbociclib, GDC-0810 nor AZD-9496, tamoxifen nor fulvestrant (at 200 nM) significantly disrupted spheroid size or architecture”, the “soft agar colony formation” value (MCF-7 MT-ERα Y537S cells) was “neither the parental ERX-11, tamoxifen nor GDC0810 SERD (at the same concentrations) had an effect on colony formation” and the MT-ERα transcriptional programme (MT-ERα [5]) was “neither tamoxifen nor ERX-314 is able to alter the ERα-regulated transcriptome”.
